Experimental data: US11332443B2, “Derivatives of halo quinabactin” (THE REGENTS OF THE UNIVERSITY OF CALIFORNIA, priority 2015, dated 2022)

Legend:
Assay type in all cases: biochemical
PYR1-HAB1 = molecular target: T1, PYR1-HAB1 (Arabidopsis thaliana, UniProt O49686); assay: PP2C activity assay, PYR1-HAB1 inhibition; conditions: for activity at 0.2 µM: 200 nM test compound, 100 nM HAB1 PP2C, 200 nM receptor, read-out: % Inhibition of PYR/PYL-HAB1 at 200 nM: PYR1; for IC50: dose response in triplicate, non-linear regression
T1 construct: 6xHis (N); made in house; host or cells: E. coli BL21[DE3]pLysS (stated for GST-HAB1)
T1 sequence (O49686 1-191): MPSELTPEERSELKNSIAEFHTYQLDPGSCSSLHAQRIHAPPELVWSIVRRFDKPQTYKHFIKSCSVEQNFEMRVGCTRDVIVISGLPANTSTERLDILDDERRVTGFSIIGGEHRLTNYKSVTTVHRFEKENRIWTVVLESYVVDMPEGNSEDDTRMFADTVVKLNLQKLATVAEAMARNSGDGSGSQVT
T1 sequence (Q9CAJ0 23-511 partner): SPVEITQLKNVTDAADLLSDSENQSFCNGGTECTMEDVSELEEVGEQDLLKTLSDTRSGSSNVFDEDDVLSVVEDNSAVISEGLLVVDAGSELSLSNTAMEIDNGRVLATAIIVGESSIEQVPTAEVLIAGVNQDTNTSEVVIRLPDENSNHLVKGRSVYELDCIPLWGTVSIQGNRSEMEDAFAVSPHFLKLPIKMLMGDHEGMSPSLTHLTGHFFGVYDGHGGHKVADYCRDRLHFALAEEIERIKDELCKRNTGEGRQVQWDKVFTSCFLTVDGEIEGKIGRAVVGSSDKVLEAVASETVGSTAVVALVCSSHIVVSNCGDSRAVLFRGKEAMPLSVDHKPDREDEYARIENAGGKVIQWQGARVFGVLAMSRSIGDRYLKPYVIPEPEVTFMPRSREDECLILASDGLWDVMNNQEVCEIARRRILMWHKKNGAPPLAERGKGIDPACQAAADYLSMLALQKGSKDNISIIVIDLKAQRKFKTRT
Description: (§1) The protein HAB1, a type 2 protein phosphatase (PP2C), is inhibited by PYR/PYL proteins in dependence of abscisic acid or other agonists. The potency of an agonist correlates with the level of inhibition of the PP2C, and therefore the IC50 (receptor-HAB1) can be used to compare the relative activity of different chemical analogues. Since inhibition of PP2C correlates to inhibition of seed-germination and increase in plant water-use efficiency, it serves as a powerful tool to quantify biological potential of a chemical acting as an analogue of abscisic acid.
(§2) HAB1 and PYL proteins were expressed and purified as described in Park et al. ((2009) Science 324(5930):1068-1071), with minor modifications. GST-HAB1 was produced by expression in BL21[DE3]pLysS host cells with an expression clone containing the HAB1 cDNA cloned into pGex-2T. Transformed E. coli cells were pre-cultured overnight, transferred to LB medium and cultured at 30° C. to culture A600 of ˜0.5 OD units. The culture was then cooled on ice and MnCl2 added to 4 mM and IPTG added to 0.3 mM. After 16 hours incubation at 15° C., cells were harvested and recombinant proteins were purified on glutathione agarose as described in Park et al. To obtain 6×His-PYL receptor fusion proteins, we used expression constructs previously described by Okamoto et al. 2013, (PNAS 110(29): 12132-12137).
(§3) PP2C activity assays using recombinant receptors and PP2Cs were carried out as follows: purified proteins were pre-incubated in 160 μl assay buffer containing (100 mM Tris-HCl-pH7.9, 100 mM NaCl, 3 μg bovine serum albumin and 0.1% 2-mercaptoethanol), 1 mM MnCl2 with carrier solvent (DMSO), quinabactin or quinabactin analogs (compounds of the present invention) for 30 minutes at room temperature. Reactions were started by adding 40 μL of a reaction solution containing 25 mM 4-nitrophenyl phosphate in assay buffer, after which absorbance measurements were immediately collected (405 nm) using a Wallac plate reader. […] Inhibition is indicated by reduced PP2C activity, which is expressed as a percentage of the control PP2C activity values that were obtained from assays containing carrier solvent instead but no test compound.

PYL1-HAB1 = molecular target: T2, PYL1-HAB1 (Arabidopsis thaliana, UniProt Q8VZS8); assay: PP2C activity assay, PYL1-HAB1 inhibition; conditions: 200 nM test compound, 100 nM HAB1 PP2C, 200 nM receptor; read-out: % Inhibition of PYR/PYL-HAB1 at 200 nM: PYL1
T2 construct: 6xHis (N); made in house; host or cells: E. coli BL21[DE3]pLysS (stated for GST-HAB1)
T2 sequence (Q8VZS8 1-221): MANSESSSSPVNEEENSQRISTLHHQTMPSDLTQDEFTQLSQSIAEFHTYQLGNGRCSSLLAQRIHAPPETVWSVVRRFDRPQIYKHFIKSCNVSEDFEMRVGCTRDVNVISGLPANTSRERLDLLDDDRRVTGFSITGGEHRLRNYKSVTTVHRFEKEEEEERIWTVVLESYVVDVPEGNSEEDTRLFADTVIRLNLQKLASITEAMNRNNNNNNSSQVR
T2 sequence (Q9CAJ0 23-511 partner): T1 sequence (Q9CAJ0 23-511 partner)
Description: as §1, §2
PP2C activity assays using recombinant receptors and PP2Cs were carried out as follows: purified proteins were pre-incubated in 160 μl assay buffer containing (100 mM Tris-HCl-pH7.9, 100 mM NaCl, 3 μg bovine serum albumin and 0.1% 2-mercaptoethanol), 1 mM MnCl2 with carrier solvent (DMSO), quinabactin or quinabactin analogs (compounds of the present invention) for 30 minutes at room temperature. Reactions were started by adding 40 μL of a reaction solution containing 25 mM 4-nitrophenyl phosphate in assay buffer, after which absorbance measurements were immediately collected (405 nm) using a Wallac plate reader. Reactions contained 100 nM HAB1 PP2C and 200 nM receptor and 200 nM test compound. Inhibition is indicated by reduced PP2C activity, which is expressed as a percentage of the control PP2C activity values that were obtained from assays containing carrier solvent instead but no test compound.

PYL2-HAB1 = molecular target: T3, PYL2-HAB1 (Arabidopsis thaliana, UniProt O80992); assay: PP2C activity assay, PYL2-HAB1 inhibition; conditions: for percent inhibition at 0.2 µM: 200 nM test compound, 100 nM HAB1 PP2C, 200 nM receptor, read-out: % Inhibition of PYR/PYL-HAB1 at 200 nM: PYL2; for IC50: dose response in triplicate, non-linear regression
T3 construct: 6xHis (N); made in house; host or cells: E. coli BL21[DE3]pLysS (stated for GST-HAB1)
T3 sequence (O80992 1-190): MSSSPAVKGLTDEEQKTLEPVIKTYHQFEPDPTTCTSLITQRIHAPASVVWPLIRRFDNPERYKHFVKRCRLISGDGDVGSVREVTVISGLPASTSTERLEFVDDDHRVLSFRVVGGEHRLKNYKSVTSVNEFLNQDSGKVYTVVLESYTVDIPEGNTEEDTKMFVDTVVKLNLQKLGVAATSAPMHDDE
T3 sequence (Q9CAJ0 23-511 partner): T1 sequence (Q9CAJ0 23-511 partner)
Description: as §1, §2, §3

| activity at 0.2 µM (PYR1-HAB1) [%] | activity at 0.2 µM (PYL1-HAB1) [%] | percent inhibition at 0.2 µM (PYL2-HAB1) [%] | IC50 (PYR1-HAB1) [nM] | IC50 (PYL2-HAB1) [nM] | SMILES |
| --- | --- | --- | --- | --- | --- |
| 97.4 | 84.7 | 94.1 | – | – | CCCN1C(=O)CCc2cc(NS(=O)(=O)Cc3ccccc3Br)cc(F)c21 [HQ20] |
| 105 | 86.9 | 92.2 | – | – | CCCN1C(=O)CCc2cc(NS(=O)(=O)Cc3ccc(Cl)cc3Br)cc(F)c21 [HQ9] |
| 39.8 | 44.3 | 77.2 | – | – | CCCN1C(=O)CCc2cc(NS(=O)(=O)Cc3ccc(C#N)cc3)cc(F)c21 [HQ10] |
| 42.9 | 18.2 | 51.8 | – | – | CCCN1C(=O)CCc2cc(NS(=O)(=O)Cc3ccc(Br)cc3F)cc(F)c21 [HQ5] |
| 62.6 | 78.9 | 91.8 | – | – | CCCN1C(=O)CCc2cc(NS(=O)(=O)Cc3ccc(C(=O)OC)cc3)cc(F)c21 [HQ14] |
| 91.5 | 70.6 | 86.3 | – | – | CCCN1C(=O)CCc2cc(NS(=O)(=O)Cc3ccc(Cl)cc3Cl)cc(F)c21 [HQ22] |
| 110 | 88.2 | 94.1 | – | – | CCCN1C(=O)CCc2cc(NS(=O)(=O)Cc3ccc(F)cc3Cl)cc(F)c21 [HQ13] |
| 53.9 | 31 | 67.4 | – | – | CCCN1C(=O)CCc2cc(NS(=O)(=O)Cc3cccc(F)c3F)cc(F)c21 [HQ7] |
| 33.8 | 20.8 | 42.8 | 75 | 77 | CCCN1C(=O)CCc2cc(NS(=O)(=O)Cc3ccc(Br)cc3)cc(F)c21 [HQ25] |
| 57.9 | 35.1 | 57.4 | – | – | CCCN1C(=O)CCc2cc(NS(=O)(=O)Cc3cc(F)ccc3F)cc(F)c21 [HQ6] |
| 37.9 | 20.3 | 38.9 | 47.7 | 74 | CCCN1C(=O)CCc2cc(NS(=O)(=O)Cc3ccc(C)cc3)cc(Cl)c21 [HQ2] |
| 28.8 | 27.9 | 73.5 | 61.2 | 317 | CCCN1C(=O)CCc2cc(NS(=O)(=O)Cc3ccc(C#N)cc3F)cc(F)c21 [HQ11] |
| 65.7 | 46.7 | 78.3 | – | – | CCCN1C(=O)CCc2cc(NS(=O)(=O)Cc3ccccc3F)cc(F)c21 [HQ3] |
| 52 | 38.5 | 53.9 | – | – | CCCN1C(=O)CCc2cc(NS(=O)(=O)Cc3ccc(C(F)(F)F)cc3)cc(F)c21 [HQ16] |
| 62.4 | 48.2 | 63.7 | – | – | CCCN1C(=O)CCc2cc(NS(=O)(=O)Cc3cccc(F)c3)cc(F)c21 [HQ21] |
| 104 | 88.1 | 88.2 | – | – | CCCN1C(=O)CCc2cc(NS(=O)(=O)Cc3cccc(C(F)(F)F)c3)cc(F)c21 [HQ17] |
| 69 | 53.2 | 76.5 | – | – | CCCN1C(=O)CCc2cc(NS(=O)(=O)Cc3ccc([N+](=O)[O-])cc3)cc(F)c21 [HQ24] |
| 61.5 | 46.1 | 69.3 | – | – | CCCN1C(=O)CCc2cc(NS(=O)(=O)Cc3ccc(F)cc3F)cc(F)c21 [HQ4] |
| 107 | 87.4 | 92 | – | – | CCCN1C(=O)CCc2cc(NS(=O)(=O)Cc3ccc(F)cc3Br)cc(F)c21 [HQ8] |

| SMILES | activity at 0.2 µM (PYR1-HAB1) [%] | activity at 0.2 µM (PYL1-HAB1) [%] | percent inhibition at 0.2 µM (PYL2-HAB1) [%] | IC50 (PYR1-HAB1) [nM] | IC50 (PYL2-HAB1) [nM] |
| --- | --- | --- | --- | --- | --- |
| CCCN1C(=O)CCc2cc(NS(=O)(=O)Cc3ccc(C)cc3)ccc21 [Quinabactin] | 22 | 23 | 44 | 104 | 262 |
